Test [1] has as its system MCF7 WT Brk expressing cells. Kind of test: PI staining and FACS analysis, % G1 content. Type of test: cell-based, human. As to conditions: PD0332991 up to 100 nM. The method, then:
Immunoprecipitation with IgG served as a negative control (FIG. 6C). DNA with Hoechst stain is in blue and is merged with red and green staining (FIG. 6D). (FIG. 6E) Cdk4 was immunoprecipitated from the lysates and recombinant Rb was added to perform an in vitro kinase assay in the presence of ATP Immunoblot analysis was performed to probe for Rb, Ser780 pRb and cdk4 Immunoprecipitation with IgG served as a negative control. (FIG. 6F) Cells were treated with different concentrations of PD0332291 or DMSO as a control at Day 2. Total cell numbers were analyzed by counting 24 and 48 hours post treatment to determine IC50 values. (FIG. 6G) Cells were treated with different concentration of PD032291 or DMSO and analyzed by PI staining and FACS analysis. % G1 content is plotted.
The PCR fragments were ligated to the T7pGEMEX human His-p27 or T7pGEMEX human Flag-p27 plasmid for expression in E. coli. Mutants Y74F, Y88F, and Y88/89F were previously described (12). Flag-tagged p27 mutants were purified by Flag-immunoprecipitation with Flag antibody (M-2, Sigma F-18C9) and eluted with Flag peptide (Sigma F-4799) according to manufacturer's protocol. His-tagged p27 mutants were purified by FPLC via his-trap affinity chromatography (His-Trap HP, GE Healthcare 71-5247-01). The affinity column was stripped according to manufacturer's protocol, then washed with 5 column volumes of 100 mM CoCl2. […]
(In flow cytometry, cells or beads pass a laser one at a time.)

Another test concerns MB 231 (TNBC). Put plainly: Palbociclib sensitivity of breast cancer line. As to conditions: Homo sapiens; MB 231, moderate-responder. Type of test: cell-based.

Broadly, the IC50 is the concentration that gives 50% inhibition. A high value points to a need for much substance.

As to `CC(=O)c1c(C)c2cnc(Nc3ccc(N4CCNCC4)cn3)nc2n(C2CCCC2)c1=O` [PD0332991], the G1 content entry in test [1] is “approximately 55%”. In addition, half-maximal inhibition in the test with MB 231 (TNBC) (IC50) required 400 nM.

Source of the values: patent US11260100B2, “Compositions targeting the interaction domain between p27Kip1 and Brk and methods of use thereof to inhibit p27 Y phosphorylation and cdk4 activity” (The Research Foundation for the State University of New York, priority 2014, dated 2022).
